Each structure is given as a SMILES string.

For this assay, the system named is Aspergillus parasiticus B62. It counts as cell-based.

Consider `Cc1cc(OC(=O)c2c(C)cc(O)cc2O)cc(O)c1C(=O)O` [Lecanoric acid], for which the growth entry was “inhibitory effects”.
Regarding `COC(=O)c1c(C)cc(O)cc1O` [methyl-orsellinate], the growth entry is given as “inhibitory effects”.
